Results taken from PubChem BioAssay (NCI).
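Where inhibition never reached the appropriate level, the endpoint shown equals the highest concentration tested. Otherwise, values were interpolated linearly from a five-concentration, 48-hour dose response in 96-well plates. Abbreviation: GI50, concentration required for 50% inhibition of growth. TGI: concentration producing complete growth inhibition.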

Key:
Experiment in all cases: DTP human tumour cell line panel, 48 h
HCT-15 colon = system: HCT-15 colon
DU-145 prostate = system: DU-145 prostate
OVCAR-4 ovarian = system: OVCAR-4 ovarian
SF-295 CNS = system: SF-295 CNS
786-0 renal = system: 786-0 renal
UACC-257 melanoma = system: UACC-257 melanoma
SN12C renal = system: SN12C renal
MOLT-4 leukemia = system: MOLT-4 leukemia
LOX IMVI melanoma = system: LOX IMVI melanoma
OVCAR-3 ovarian = system: OVCAR-3 ovarian
HOP-62 NSCLC = system: HOP-62 NSCLC
MDA-MB-231 breast = system: MDA-MB-231 breast
SNB-19 CNS = system: SNB-19 CNS
HL-60(TB) leukemia = system: HL-60(TB) leukemia
T-47D breast = system: T-47D breast
HCT-116 colon = system: HCT-116 colon
A549 NSCLC = system: A549 NSCLC
U251 CNS = system: U251 CNS
NCI-H522 lung = system: NCI-H522 lung
UO-31 renal = system: UO-31 renal
OVCAR-8 ovarian = system: OVCAR-8 ovarian
EKVX NSCLC = system: EKVX NSCLC
SW-620 colon = system: SW-620 colon
K-562 leukemia = system: K-562 leukemia
NCI-H226 lung = system: NCI-H226 lung
HOP-92 NSCLC = system: HOP-92 NSCLC
SF-268 CNS = system: SF-268 CNS
HCC-2998 colon = system: HCC-2998 colon

CC(C)=C[C@@H]1C[C@H](C)[C@H]2CC[C@H](C)c3c(O)c(OC4OCC(O)C(O)C4O)c(C)c1c32 (stereo not given in full)
TGI (HCT-15 colon): 26.9 µM | GI50 (DU-145 prostate): 11.8 µM | TGI (DU-145 prostate): 24 µM | GI50 (OVCAR-4 ovarian): 9.39 µM | TGI (OVCAR-4 ovarian): 22.1 µM | GI50 (SF-295 CNS): 14.2 µM | TGI (SF-295 CNS): 29.3 µM | GI50 (786-0 renal): 17.9 µM | TGI (786-0 renal): 34.8 µM | GI50 (UACC-257 melanoma): 6.44 µM | TGI (UACC-257 melanoma): 19.7 µM | GI50 (SN12C renal): 10.2 µM | TGI (SN12C renal): 21.8 µM | GI50 (MOLT-4 leukemia): 5.24 µM | TGI (MOLT-4 leukemia): 19.7 µM | GI50 (LOX IMVI melanoma): 15 µM | TGI (LOX IMVI melanoma): 28.2 µM | GI50 (OVCAR-3 ovarian): 11.9 µM | TGI (OVCAR-3 ovarian): 24.3 µM | GI50 (HOP-62 NSCLC): 18.2 µM | TGI (HOP-62 NSCLC): 33.6 µM | GI50 (MDA-MB-231 breast): 13.5 µM | TGI (MDA-MB-231 breast): 26.3 µM | GI50 (SNB-19 CNS): 16.2 µM | TGI (SNB-19 CNS): 29.8 µM | GI50 (HL-60(TB) leukemia): 10.9 µM | TGI (HL-60(TB) leukemia): 24.5 µM | GI50 (T-47D breast): 13.3 µM | TGI (T-47D breast): 28.1 µM | GI50 (HCT-116 colon): 13.9 µM | TGI (HCT-116 colon): 28.4 µM | GI50 (A549 NSCLC): 10.3 µM | TGI (A549 NSCLC): 22.7 µM | GI50 (U251 CNS): 16.1 µM | TGI (U251 CNS): 29.6 µM | GI50 (NCI-H522 lung): 16.4 µM | TGI (NCI-H522 lung): 30.2 µM | GI50 (UO-31 renal): 17.8 µM | TGI (UO-31 renal): 31.6 µM | GI50 (OVCAR-8 ovarian): 16.6 µM | TGI (OVCAR-8 ovarian): 33 µM | GI50 (EKVX NSCLC): 18.8 µM | TGI (EKVX NSCLC): 33.3 µM | GI50 (SW-620 colon): 15.9 µM | TGI (SW-620 colon): 29.3 µM | GI50 (K-562 leukemia): 5.73 µM | TGI (K-562 leukemia): 20.5 µM | GI50 (NCI-H226 lung): 15.8 µM | TGI (NCI-H226 lung): 30.6 µM | GI50 (HOP-92 NSCLC): 12.3 µM | TGI (HOP-92 NSCLC): 24.7 µM | GI50 (SF-268 CNS): 12.4 µM | TGI (SF-268 CNS): 24.9 µM | GI50 (HCC-2998 colon): 4.43 µM | TGI (HCC-2998 colon): 19.8 µM
